Measurements as given in patent publication US12162858B2, “Quinoline derivatives as inhibitors of AXL/MER RTK and CSF1R” (QURIENT CO., LTD., priority 2018, dated 2024).

Columns and labels:
CSF1R (Ba/F3 cells) = CSF1R (Ba/F3 cells) (Homo sapiens, UniProt P07333); experiment: BaF3 viability assay, CSF1R-dependent cells; type: cell-based; conditions: read-out: Cellular CSF1R activity by Ba/F3 assay (IC50)
Excerpt: In this system, IL-3-dependent Ba/F3 cells are modified to express an activated recombinant kinase (in the present case Axl, Mer and CSF1R). Following removal of IL-3, the modified cells are dependent on the activity of the recombinant kinase for survival and proliferation. Inhibition of such kinase(s) through test compounds reduces survival and proliferation of the cells.
Cell lines were maintained in growth media (GM) consisting of RPMI 1640 supplemented with 10% FBS. Cells in logarithmic-phase growth were harvested and 5,000 cells were distributed into each well of a 384-well plate in 50 μl GM. Parental cells (or experimental assays where specified) were further supplemented with 2 ng/ml IL-3 to support cell growth and survival. Fifty nanoliters of the indicated reference standard or experimental compound were added to appropriate wells (in duplicate) and the cells were cultured for 48 h at 37° C./5% CO2. Viability was determined by adding 10 μl Cell Titer Glo and measuring luminescence, which is reported as relative light units (RLU) measured in counts per second. The following calculations and formulas are used for data analysis using GraphPad Prism software: The curve fitting was made using the Dose response curves-Inhibition.

Axl = target: T1, Axl (Homo sapiens, UniProt P30530); experiment: LanthaScreen Eu kinase binding assay for Axl; conditions: read-out: Axl kinase binding activity (Kd)
T1 sequence (P30530 26-894): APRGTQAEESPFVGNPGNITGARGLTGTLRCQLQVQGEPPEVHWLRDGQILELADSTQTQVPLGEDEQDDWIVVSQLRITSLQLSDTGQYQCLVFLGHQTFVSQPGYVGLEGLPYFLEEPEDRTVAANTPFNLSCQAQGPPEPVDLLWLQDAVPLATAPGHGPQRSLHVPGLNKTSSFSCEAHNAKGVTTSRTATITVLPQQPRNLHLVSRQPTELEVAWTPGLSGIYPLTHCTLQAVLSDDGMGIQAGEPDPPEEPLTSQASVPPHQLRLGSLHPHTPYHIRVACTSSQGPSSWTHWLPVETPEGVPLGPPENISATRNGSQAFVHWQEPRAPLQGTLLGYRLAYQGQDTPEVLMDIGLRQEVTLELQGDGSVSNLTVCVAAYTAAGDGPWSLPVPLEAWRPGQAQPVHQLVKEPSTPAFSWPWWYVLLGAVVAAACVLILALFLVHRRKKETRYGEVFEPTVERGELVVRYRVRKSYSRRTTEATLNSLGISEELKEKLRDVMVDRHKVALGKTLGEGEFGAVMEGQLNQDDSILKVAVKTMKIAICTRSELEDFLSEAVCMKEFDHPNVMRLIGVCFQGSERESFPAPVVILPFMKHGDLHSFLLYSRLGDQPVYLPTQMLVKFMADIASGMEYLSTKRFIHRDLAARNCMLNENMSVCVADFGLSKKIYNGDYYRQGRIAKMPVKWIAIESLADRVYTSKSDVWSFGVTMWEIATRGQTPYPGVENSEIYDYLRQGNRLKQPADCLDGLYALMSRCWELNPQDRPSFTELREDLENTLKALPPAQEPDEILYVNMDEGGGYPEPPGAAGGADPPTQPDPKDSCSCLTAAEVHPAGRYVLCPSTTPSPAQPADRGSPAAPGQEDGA
Method in brief: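 Competitive displacement of Alexa Fluor 647-labeled Tracer 236 from the kinase, with binding detected by TR-FRET with a Eu-labeled anti-GST antibody. Compounds were run as 8-step DMSO serial dilutions and incubated 1 h at room temperature. Kd was calculated relative to DMSO vehicle control wells.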

Sequence of CSF1R (Ba/F3 cells) (P07333 whole entry, change not shown): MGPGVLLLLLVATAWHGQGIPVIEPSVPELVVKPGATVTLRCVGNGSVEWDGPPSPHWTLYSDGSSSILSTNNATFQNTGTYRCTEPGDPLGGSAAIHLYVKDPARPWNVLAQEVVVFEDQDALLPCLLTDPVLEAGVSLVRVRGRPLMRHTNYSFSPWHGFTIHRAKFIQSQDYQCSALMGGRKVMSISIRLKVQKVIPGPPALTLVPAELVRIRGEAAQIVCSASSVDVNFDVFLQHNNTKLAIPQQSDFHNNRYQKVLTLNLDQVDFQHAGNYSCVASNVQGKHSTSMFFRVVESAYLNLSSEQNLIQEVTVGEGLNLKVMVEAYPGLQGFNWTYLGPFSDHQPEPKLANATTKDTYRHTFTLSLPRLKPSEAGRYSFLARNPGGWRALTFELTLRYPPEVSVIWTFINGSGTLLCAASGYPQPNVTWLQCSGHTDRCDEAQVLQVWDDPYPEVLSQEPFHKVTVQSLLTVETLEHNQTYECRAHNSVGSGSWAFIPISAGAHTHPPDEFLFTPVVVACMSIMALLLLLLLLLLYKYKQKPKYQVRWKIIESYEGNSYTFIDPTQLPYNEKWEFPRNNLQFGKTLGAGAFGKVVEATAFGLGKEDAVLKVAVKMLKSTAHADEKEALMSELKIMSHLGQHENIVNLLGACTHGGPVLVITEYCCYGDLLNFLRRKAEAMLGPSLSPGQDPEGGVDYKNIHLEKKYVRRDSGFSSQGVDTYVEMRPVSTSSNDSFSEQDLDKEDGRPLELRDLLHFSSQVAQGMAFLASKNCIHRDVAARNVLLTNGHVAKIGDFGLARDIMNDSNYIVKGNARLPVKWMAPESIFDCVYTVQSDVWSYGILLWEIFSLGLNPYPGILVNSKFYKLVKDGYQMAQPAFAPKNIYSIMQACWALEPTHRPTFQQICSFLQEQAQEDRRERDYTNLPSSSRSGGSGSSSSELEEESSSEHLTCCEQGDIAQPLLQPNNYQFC

| Kd (Axl) [µM] | SMILES | GI50 (CSF1R (Ba/F3 cells)) [µM] |
| --- | --- | --- |
| < 0.1 | COc1cc2nccc(Oc3ccc(NC(=O)c4nn(C[C@@H](C)O)cc4OCC(F)(F)F)nc3)c2cc1OC [Compound 29] | < 1 |
| < 0.1 | COc1cc2nccc(Oc3ccc(NC(=O)c4nn(CCCO)cc4OCC(F)(F)F)nc3)c2cc1OC [Compound 18] | < 1 |
| < 0.1 | COc1cc2nccc(Oc3ccc(NC(=O)c4nn(CC(C)O)cc4OCC(F)(F)F)nc3)c2cc1OC (stereo not drawn) [Compound 17] | < 1 |
| < 0.1 | COc1cc2nccc(Oc3ccc(NC(=O)c4nn(C[C@H](C)O)cc4OCC(F)(F)F)nc3)c2cc1OC [Compound 30] | < 1 |
| < 0.1 | CCCn1cc(NCC(F)(F)F)c(C(=O)Nc2ccc(Oc3ccnc4cc(OC)c(OC)cc34)cn2)n1 [Compound 23] |  |
| < 0.1 | CCCn1cc(OCC2CCC2)c(C(=O)Nc2ccc(Oc3ccnc4cc(OC)c(OC(F)(F)F)cc34)cn2)n1 [Compound 167] |  |
| < 0.1 | CCCn1cc(OCCC(O)CO)c(C(=O)Nc2ccc(Oc3ccnc4cc(OC)c(OC)cc34)cn2)n1 (stereo not drawn) [Compound 15] | 1 to 10 |
| < 0.1 | CCn1nc(C(=O)Nc2ccc(Oc3ccnc4cc(OC)c(OC)cc34)cn2)c(OCC(F)(F)F)c1C [Compound 1] |  |
| < 0.1 | COc1cc2nccc(Oc3ccc(NC(=O)c4nn(CC(C)O)cc4OCC(F)F)nc3)c2cc1OC (stereo not drawn) [Compound 175] |  |
| < 0.1 | COc1cc2nccc(Oc3ccc(NC(=O)c4nn(C5CCOC5)cc4OCC(F)(F)F)cc3)c2cc1OC (stereo not drawn) [Compound 62] |  |
| < 0.1 | CCCn1cc(OCC(F)(F)F)c(C(=O)Nc2ccc(Oc3ccnc4cc(OC)c(OC)cc34)nn2)n1 [Compound 32] |  |
| < 0.1 | CCCn1cc(OCC(F)(F)F)c(C(=O)Nc2ccc(Oc3ccnc4cc(OC)c(OC)cc34)cc2F)n1 [Compound 28] |  |
| < 0.1 | COc1cc2nccc(Oc3ccc(NC(=O)c4nn(C5CC5)cc4OCCC(F)(F)F)nc3)c2cc1OC [Compound 170] |  |
| < 0.1 | COc1cc2nccc(Oc3ccc(NC(=O)c4nn(CC5CCNC5)cc4OCC(F)(F)F)nc3)c2cc1OC (stereo not drawn) [Compound 72] |  |
| < 0.1 | COc1cc2nccc(Oc3ccc(NC(=O)c4nn(CCO)cc4OCC(F)(F)F)nc3)c2cc1OC [Compound 67] |  |
| < 0.1 | COc1cc2nccc(Oc3ccc(NC(=O)c4nn(CCO)cc4OCC(F)(F)F)c(F)c3)c2cc1OC [Compound 46] |  |
| ≥ 0.5 | CCCn1cc(OC(C)C)c(C(=O)Nc2ccc(Oc3ccnc4cc(OC)c(OC(F)(F)F)cc34)c(F)c2)n1 [Compound 35] | 1 to 10 |
| < 0.1 | COc1cc2nccc(Oc3ccc(NC(=O)c4nn(CCC(F)(F)F)cc4OCC4CCC4)nc3)c2cc1OC [Compound 166] |  |
| ≥ 0.5 | CCCn1cc(N(C)CC2CCOCC2)c(C(=O)Nc2ccc(Oc3ccnc4cc(OC)c(OC)cc34)cn2)n1 [Compound 34] |  |
| < 0.1 | COc1cc2nccc(Oc3ccc(NC(=O)c4nn(CC(C)C)cc4OCC(F)(F)F)cc3F)c2cc1OC [Compound 53] |  |
| < 0.1 | CCCn1cc(OCC(F)(F)F)c(C(=O)Nc2ccc(Oc3ccnc4cc(OC)c(OC)cc34)c(C)c2)n1 [Compound 26] |  |
| < 0.1 | COc1cc2nccc(Oc3ccc(NC(=O)c4nn(C5CCCCC5)cc4OCC(F)(F)F)nc3)c2cc1OC [Compound 69] |  |
| < 0.1 | COc1cc2nccc(Oc3ccc(NC(=O)c4nn(CC(C)C)cc4OCC(F)(F)F)cc3C)c2cc1OC [Compound 58] |  |
| 0.1 to 0.5 | COc1cc2nccc(Oc3ccc(NC(=O)c4nc(CCC(F)(F)F)oc4CCC4CCC4)nc3)c2cc1OC [Compound 176] |  |
| < 0.1 | COc1cc2nccc(Oc3ccc(NC(=O)c4nn(C5CC5)c(C(C)=O)c4OCC(F)(F)F)nc3)c2cc1OC [Compound 3] |  |
| < 0.1 | CCCCn1cc(OCC(F)(F)F)c(C(=O)Nc2ccc(Oc3ccnc4cc(OC)c(OC)cc34)cn2)n1 [Compound 36] |  |
| < 0.1 | CCCn1cc(OCCF)c(C(=O)Nc2ccc(Oc3ccnc4cc(OC)c(OC)cc34)cn2)n1 [Compound 14] |  |
